Assay results taken from patent publication US7176320B2, “Benzimidazole derivative” (Teijin Limited, priority 2000, dated 2007).

Experiments:
[1] = In vitro metabolism test using liver microsomes (Ms); type: in vitro ADME; conditions: liver microsomes 1.0 mg/mL, substrate 5.0 μM, NADPH 1.0 mM, 37° C.; for MR (metabolic rate at its maximum): pH 7.4
Method: The metabolic rate was determined from the decrease in the amount of the unchanged form at each reaction time and the reaction time based on assigning a value of 100% to the amount of the unchanged form at the initial concentration (reaction time: 0 minutes), and the metabolic rate at the time the metabolic rate reached a maximum was evaluated as the MR value. M=(substrate concentration at reaction time: 0 min.−substrate concentration after reaction)÷reaction time÷protein concentration (nmol/min./mg protein)

[2] = molecular target: T1, recombinant human mast cell chymase (Homo sapiens, UniProt P23946); assay: Measurement of inhibition of enzyme activity of recombinant human mast cell chymase; type: biochemical; conditions: active human mast cell chymase, substrate succinyl-alanyl-histidyl-prolyl-phenylalanylparanitroanilide, 5 minutes at room temperature, absorbance 405 nm; read-out: inhibitory activity IC50
T1 construct: made in house; host or cells: insect cells (Th5) infected with recombinant baculovirus
T1 sequence (P23946 22-247): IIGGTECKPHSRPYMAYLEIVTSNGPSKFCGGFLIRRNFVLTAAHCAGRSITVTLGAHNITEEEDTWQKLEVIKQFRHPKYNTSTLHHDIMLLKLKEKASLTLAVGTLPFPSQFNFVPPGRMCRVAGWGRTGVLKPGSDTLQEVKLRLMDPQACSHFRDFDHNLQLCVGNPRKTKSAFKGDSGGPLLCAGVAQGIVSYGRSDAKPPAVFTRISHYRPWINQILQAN
Method: Recombinant human mast cell chymase was prepared in accordance with the report of Urata, et al. (Journal of Biological Chemistry, Vol. 266, p. 17173 (1991)). Namely, human mast cell chymase was purified by heparin sepharose (Pharmacia) from a culture supernatant of insect cells (Th5) infected with recombinant baculovirus containing cDNA coding for human mast cell chymase. Moreover, after activating in accordance with the report of Murakami, et al. (Journal of Biological Chemistry, Vol. 270, p. 2218 (1995)), the human mast cell chymase was purified with heparin sepharose to obtain active human mast cell chymase.
After adding 2 μl of DMSO solution containing a compound of the present invention to 50 μl of Buffer A (0.5–3.0 M NaCl, 50 mM Tris-HCl, pH 8.0) containing 1–5 ng of the active human mast cell chymase obtained in Example 16, 50 μl of Buffer A containing 0.5 mM succinyl-alanyl-histidyl-prolyl-phenylalanylparanitroanilide (Bacchem) as substrate were added and allowed to react for 5 minutes at room temperature. The changes over time in absorbance at 405 nm were measured to investigate inhibitory activity.

[3] = Measurement of blood concentration during administration by intragastric forced feeding to rats; type: in vivo, rat; conditions: male SD rats, fasting, 30 mg/kg, serum
Method: The compounds indicated with the above compound nos. 39, 52 and 244 were administered by intragastric forced feeding to male SD rats while fasting at a dose of 30 mg/kg, after which blood samples were collected immediately after administration and at 30 minutes and 1, 2 and 4 hours after administration. Following collection of blood samples, where samples were immediately separated into serum components, the compound of the present invention was extracted by ordinary solid phase extraction methods, and the resulting samples were analyzed by HPLC using an ODS column (32% acetonitrile-water-0.05% TFA was used for the mobile phase for compound nos. 52 and 244, while 47% acetonitrile-water-10 mM ammonium acetate buffer (pH 4.0) was used for the mobile phase for compound no. 39) followed by measurement of the amount of the unchanged form.

[4] = 30 minutes after administration

SMILES: Cc1cc2nc(SCCCC(=O)O)n(Cc3csc4ccccc34)c2cc1C [Compound No. 532]
- Percentage of substrate remaining after 30 min. [1]: 36.2%
- MR (metabolic rate at its maximum) [1]: 0.277 nmol/min./mg protein
- IC50 [2]: 1 to 10 nM

SMILES: Cc1ccc2scc(Cn3c(SCCCC(=O)O)nc4cc(C)c(C)cc43)c2c1 [compound 536]
- Percentage of substrate remaining after 30 min. [1]: 56.3%
- MR (metabolic rate at its maximum) [1]: 0.131 nmol/min./mg protein

SMILES: N#Cc1ccc2c(c1)nc(SCCCC(=O)O)n2Cc1csc2ccccc12 [Compound No. 244]
- Blood concentration of the unchanged form After 30 min. [3, 4]: 16500 ng/mL
- Blood concentration of the unchanged form After 4 hr. ([3]; 4 hours after administration): 8900 ng/mL
- Percentage of substrate remaining after 30 min. [1]: 57.9%
- MR (metabolic rate at its maximum) [1]: 0.211 nmol/min./mg protein

SMILES: COc1ccc2c(c1)nc(SCCCC(=O)O)n2Cc1csc2cccc(C)c12 [Compound No. 154, 4-(1-((4-methylbenzothiophene-3-yl)methyl)-5-methoxybenzimidazole-2-ylthio)butanoic acid]
- IC50 [2]: 1 to 10 nM

SMILES: O=C(O)CCCSc1nc2cc(Cl)c(Cl)cc2n1Cc1csc2ccccc12 [compound 628]
- IC50 [2]: 10 to 100 nM

SMILES: COc1ccc2c(c1)nc(SCCCC(=O)O)n2Cc1csc2ccccc12 [Compound No. 148, 4-(1-((benzothiophene-3-yl)methyl)-5-methoxybenzimidazole-2-ylthio)butanoic acid]
- IC50 [2]: 1 to 10 nM

SMILES: COc1ccc2nc(SCCCC(=O)O)n(Cc3csc4cccc(C)c34)c2c1 [Compound No. 1114, 4-(1-((4-methylbenzothiophene-3-yl)methyl)-6-methoxybenzimidazole-2-ylthio)butanoic acid]
- IC50 [2]: 1 to 10 nM

SMILES: Cc1cccc2c1c(Cn1c(SCCCC(=O)O)nc3ccccc31)cn2C [Compound No. 39]
- concentration at 30 min ([3]; rat, oral, 30 minutes after administration, read-out: Blood concentration of the unchanged form After 30 min.): 16100 ng/mL
- concentration at 4 h ([3]; rat, oral, 4 hours after administration, read-out: Blood concentration of the unchanged form After 4 hr.): 6300 ng/mL
- Percentage of substrate remaining after 30 min. [1]: 80.1%
- MR (metabolic rate at its maximum) [1]: 0 nmol/min./mg protein
- IC50 [2]: 1 to 10 nM

SMILES: Cc1cc2nc(SCCCC(=O)O)n(Cc3cn(C)c4ccccc34)c2cc1C [compound 514]
- Percentage of substrate remaining after 30 min. [1]: 48.7%
- MR (metabolic rate at its maximum) [1]: 0.087 nmol/min./mg protein

SMILES: Cc1cc2nc(SCCCC(=O)O)n(Cc3cn(C)c4cccc(C)c34)c2cc1C [Compound No. 519]
- Percentage of substrate remaining after 30 min. [1]: 52.9%
- MR (metabolic rate at its maximum) [1]: 0.102 nmol/min./mg protein
- IC50 [2]: 1 to 10 nM

SMILES: COc1ccc2c(c1)nc(SCCCC(=O)O)n2Cc1cn(C)c2cccc(C)c12 [Compound No. 135]
- Percentage of substrate remaining after 30 min. [1]: 55.2%
- MR (metabolic rate at its maximum) [1]: 0.097 nmol/min./mg protein
- IC50 [2]: 10 to 100 nM

SMILES: Cc1ccc2nc(SCCCC(=O)O)n(Cc3csc4ccccc34)c2c1 [Compound No. 436]
- IC50 [2]: 10 to 100 nM

SMILES: COc1ccc2c(c1)nc(SCCCC(=O)O)n2Cc1csc2ccc(C)cc12 [Compound No. 152, 4-(1-((5-methylbenzothiophene-3-yl)methyl)-5-methoxybenzimidazole-2-ylthio)butanoic acid]
- IC50 [2]: 10 to 100 nM

SMILES: COc1ccc2nc(SCCCC(=O)O)n(Cc3csc4ccc(C)cc34)c2c1 [Compound No. 1112, 4-(1-((5-methylbenzothiophene-3-yl)methyl)-6-methoxybenzimidazole-2-ylthio)butanoic acid]
- IC50 [2]: 1 to 10 nM

SMILES: Cc1ccc2scc(Cn3c(SCCCC(=O)O)nc4ccccc43)c2c1 [Compound No. 56]
- Percentage of substrate remaining after 30 min. [1]: 41.2%
- MR (metabolic rate at its maximum) [1]: 0.111 nmol/min./mg protein

SMILES: O=C(O)CCCSc1nc2ccccc2n1Cc1csc2ccccc12 [Compound No. 52]
- Blood concentration of the unchanged form After 30 min. [3, 4]: 60500 ng/mL
- Blood concentration of the unchanged form After 4 hr. ([3]; 4 hours after administration): 12700 ng/mL
- Percentage of substrate remaining after 30 min. [1]: 47.5%
- MR (metabolic rate at its maximum) [1]: 0.331 nmol/min./mg protein

SMILES: Cn1cc(Cn2c(SCCCC(=O)O)nc3ccccc32)c2ccccc21 [Compound No. 34, 4-(1-((1-methylindole-3-yl)methyl)benzimidazole-2-ylthio)butanoic acid]
- Percentage of substrate remaining after 30 min. [1]: 60.3%
- MR (metabolic rate at its maximum) [1]: 0.260 nmol/min./mg protein
- IC50 [2]: 10 to 100 nM
